# “And” between values parts separate entries of the source, which are not always exact repeats. Identical values can stand only once. Like-named read-outs stand apart in the source and are kept apart here.
# Tests used:
# [1] = molecular target: T1, CypA (Homo sapiens, UniProt P62937); test: Chymotrypsin coupled prolyl-isomerase assay; assay type: biochemical; settings: for CypA prolyl-isomerase assay raw dose-response value: Fig. 3b source data, replicates
# T1 construct: PPIA (UniProtKB Entry P62937: residues 1–165); made in house; host or cells: E. coli BL21(DE3)
# T1 sequence (P62937 whole entry, the tested form may be a part): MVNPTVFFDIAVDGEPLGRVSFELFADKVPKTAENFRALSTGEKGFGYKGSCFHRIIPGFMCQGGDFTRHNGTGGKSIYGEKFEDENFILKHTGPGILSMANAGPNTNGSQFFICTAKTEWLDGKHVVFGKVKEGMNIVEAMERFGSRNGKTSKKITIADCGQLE
# Procedure, shortened: (§1)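 Steps: cyclophilin plus compound 5 min at 2–3 °C; α-chymotrypsin added, 5 min more; Suc-AAPF-AMC substrate in LiCl/trifluoroethanol injected and fluorescence followed 330 s. Finals: 5 nM enzyme, 25 µM chymotrypsin, 5 µM substrate, 0.25% DMSO.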
# [2] = molecular target: T2, CypB (Homo sapiens, UniProt P23284); test: biochemical; settings: for CypB prolyl-isomerase assay raw dose-response value: Fig. 3b source data, replicates
# T2 construct: PPIB (UniProtKB Entry P23284: residues 34–216); His6 with TEV site (2BT vector leader) (N); made in house; host or cells: E. coli BL21(DE3)
# T2 sequence (P23284 34-216): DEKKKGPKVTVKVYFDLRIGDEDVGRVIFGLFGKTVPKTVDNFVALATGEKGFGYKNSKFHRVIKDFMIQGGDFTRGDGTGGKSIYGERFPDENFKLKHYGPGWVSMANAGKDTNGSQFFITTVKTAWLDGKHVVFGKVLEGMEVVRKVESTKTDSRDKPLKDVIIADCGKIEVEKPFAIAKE
# Procedure, shortened: as §1
# [3] = molecular target: T3, NKTR (Homo sapiens, UniProt P30414); test: Chymotrypsin coupled prolyl-isomerase assay; assay type: biochemical; settings: for NKTR prolyl-isomerase assay raw dose-response value: Fig. 3b source data, replicates
# T3 construct: NKTR (UniProtKB Entry P30414: residues 7–179); host or cells: E. coli BL21(DE3)
# T3 sequence (P30414 7-179): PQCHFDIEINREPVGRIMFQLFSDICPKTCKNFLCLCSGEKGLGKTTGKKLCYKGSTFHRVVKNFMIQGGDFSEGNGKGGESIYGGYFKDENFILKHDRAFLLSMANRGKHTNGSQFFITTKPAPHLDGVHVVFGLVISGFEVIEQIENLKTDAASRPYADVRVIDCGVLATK
# Protocol: Adapting a previously described protocol[51], with an Agilent Bravo Velocity 11 with a 384ST head, 90 µL assay buffer (25 mM HEPES pH 7.3, 100 mM NaCl, 0.01% Triton X-100) containing 5.28 nM cyclophilin was added into a flat, clear-bottom, black 384-well plate pre-chilled in a Corning CoolBox at 2–3 °C. Five microliters of compound pre-dissolved in 5% DMSO/assay buffer was then added to appropriate wells and incubated at 2–3 °C for 5 min. Five microliters of 0.5 mM α-chymotrypsin from bovine pancreas (Type II, lyophilized powder, Millipore-Sigma) in 20% 1 mM HCl/Assay Buffer was then added to each well and incubated at 2–3 °C for 5 min. […] Using the internal liquid handling system of the FLIPR, 1 µL 0.5 mM Suc-AAPF-AMC (Chymotrypsin Substrate II, Millipore-Sigma) dissolved in 0.55 M LiCl/2,2,2-trifluoroethanol was added to each well, which was then mixed for 5 s, followed by immediate fluorescence measurements every 1 s for 330 s using a 360–380 nm excitation LED module and a 400–460 nm emission filter. Final concentrations of the plate include 5 nM cyclophilin, 0.25% DMSO, 25 µM α-chymotrypsin, 5 µM Suc-AAPF-AMC. Raw fluorescence data was analyzed by non-linear regression analysis with Prism v.9 by fitting one-phase association curves to each well. Analyses were halted after the calculated maximum fluorescent value owing to observed fluorescent bleaching during the sustained fluorescent plateau. Rate constants calculated for each well (s^−1) were then normalized to substrate only (no prolyl-isomerase) and enzyme + substrate only controls. IC50 values were calculated as the value at which 50% inhibition was achieved on the non-linear regression fitted curve of each compound.
# [4] = molecular target: Cyp40 (Homo sapiens, UniProt Q08752); test: Chymotrypsin coupled prolyl-isomerase assay; settings: for Cyp40 prolyl-isomerase assay raw dose-response value: Fig. 3b source data, replicates
# Cyp40, sequence (Q08752 1-183): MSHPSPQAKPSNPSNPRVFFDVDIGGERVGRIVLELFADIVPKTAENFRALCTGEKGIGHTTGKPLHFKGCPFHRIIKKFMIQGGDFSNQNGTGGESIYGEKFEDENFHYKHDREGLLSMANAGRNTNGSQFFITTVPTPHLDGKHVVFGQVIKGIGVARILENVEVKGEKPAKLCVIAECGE
# Procedure, shortened: as §1
smiles,measurement,setting,value
NCCOCCNC(=O)[C@@H]1CCNC(=O)/C=C/C(=O)N2CCC[C@](Cc3ccccc3)(C2)C(=O)N[C@@H](Cc2ccc(-c3ccc(CCC(=O)O)cc3)cc2)C(=O)NCc2ccccc2CC(=O)N1 [Compound B23],CypA prolyl-isomerase assay raw dose-response value,[1]; Dose 0.0605624 µM,0.07524 and 0.06823 and 0.07786
same,CypA prolyl-isomerase assay raw dose-response value,[1]; Dose 0.181687 µM,0.04845 and 0.04593 and 0.054
same,CypA prolyl-isomerase assay raw dose-response value,[1]; Dose 0.545062 µM,0.03092 and 0.02915 and 0.02773
same,CypA prolyl-isomerase assay raw dose-response value,[1]; Dose 1.63519 µM,0.0188 and 0.01847 and 0.01826
same,CypA prolyl-isomerase assay raw dose-response value,[1]; Dose 4.90556 µM,0.01632 and 0.01475 and 0.01432
same,CypA prolyl-isomerase assay raw dose-response value,[1]; Dose 14.7167 µM,0.01473 and 0.01273 and 0.01279
same,CypA prolyl-isomerase assay raw dose-response value,[1]; Dose 44.15 µM,0.01511 and 0.01244 and 0.01258
same,IC50,"[1]; prolyl-isomerase inhibition, 5 nM cyclophilin, read-out: IC50 CypA",80 ± 10 nM
same,IC50,"[1]; prolyl-isomerase inhibition, read-out: IC50 CypA",80 nM
same,IC50,"[1]; wild-type CypA, read-out: Wild-Type Cyclophilin Prolyl Isomerase Inhibition IC50 Values, CypA",80 nM
same,IC50,"[2]; CypB (comparator for CypB E121S), read-out: Mutant Cyclophilin Prolyl Isomerase Inhibition IC50 Values, CypB",22 nM
same,CypB prolyl-isomerase assay raw dose-response value,[2]; Dose 0.00457247 µM,0.0629 and 0.06607 and 0.09046
same,CypB prolyl-isomerase assay raw dose-response value,[2]; Dose 0.0137174 µM,0.04838 and 0.05763 and 0.06969
same,CypB prolyl-isomerase assay raw dose-response value,[2]; Dose 0.0411523 µM,0.04508 and 0.04072 and 0.05012
same,CypB prolyl-isomerase assay raw dose-response value,[2]; Dose 0.123457 µM,0.03305 and 0.03113 and 0.02819
same,CypB prolyl-isomerase assay raw dose-response value,[2]; Dose 0.37037 µM,0.02119 and 0.01977 and 0.01945
same,CypB prolyl-isomerase assay raw dose-response value,[2]; Dose 1.11111 µM,0.01691 and 0.01533 and 0.01651
same,CypB prolyl-isomerase assay raw dose-response value,[2]; Dose 3.33333 µM,0.01532 and 0.01471 and 0.0137
same,CypB prolyl-isomerase assay raw dose-response value,[2]; Dose 10 µM,0.01585 and 0.0132 and 0.01359
same,IC50,"[2]; prolyl-isomerase inhibition, 5 nM cyclophilin, read-out: IC50 CypB",22 ± 4 nM
same,IC50,"[2]; prolyl-isomerase inhibition, read-out: IC50 CypB",22 nM
same,IC50,"[2]; wild-type CypB, read-out: Wild-Type Cyclophilin Prolyl Isomerase Inhibition IC50 Values, CypB",22 nM
same,NKTR prolyl-isomerase assay raw dose-response value,[3]; Dose 0.0201875 µM,0.03059 and 0.03481 and 0.04051
same,NKTR prolyl-isomerase assay raw dose-response value,[3]; Dose 0.0605624 µM,0.03143 and 0.03531 and 0.03914
same,NKTR prolyl-isomerase assay raw dose-response value,[3]; Dose 0.181687 µM,0.02923 and 0.03481 and 0.03355
same,NKTR prolyl-isomerase assay raw dose-response value,[3]; Dose 0.545062 µM,0.03762 and 0.03481 and 0.03206
same,NKTR prolyl-isomerase assay raw dose-response value,[3]; Dose 1.63519 µM,0.03593 and 0.02854 and 0.03455
same,NKTR prolyl-isomerase assay raw dose-response value,[3]; Dose 4.90556 µM,0.0369 and 0.03251 and 0.03563
same,NKTR prolyl-isomerase assay raw dose-response value,[3]; Dose 14.7167 µM,0.03118 and 0.02949 and 0.02947
same,NKTR prolyl-isomerase assay raw dose-response value,[3]; Dose 44.15 µM,0.02842 and 0.02625 and 0.02899
same,IC50,"[3]; wild-type NKTR, read-out: Wild-Type Cyclophilin Prolyl Isomerase Inhibition IC50 Values, NKTR",> 100000 nM
same,Cyp40 prolyl-isomerase assay raw dose-response value,[4]; Dose 0.0201875 µM,0.0705 and 0.08875 and 0.06706
same,Cyp40 prolyl-isomerase assay raw dose-response value,[4]; Dose 0.0605624 µM,0.06428 and 0.07232 and 0.08253
same,Cyp40 prolyl-isomerase assay raw dose-response value,[4]; Dose 0.181687 µM,0.08019 and 0.07121 and 0.08682
same,Cyp40 prolyl-isomerase assay raw dose-response value,[4]; Dose 0.545062 µM,0.05956 and 0.06358 and 0.0778
same,Cyp40 prolyl-isomerase assay raw dose-response value,[4]; Dose 1.63519 µM,0.04659 and 0.04863 and 0.05555
same,Cyp40 prolyl-isomerase assay raw dose-response value,[4]; Dose 4.90556 µM,0.02767 and 0.03026 and 0.03081
same,Cyp40 prolyl-isomerase assay raw dose-response value,[4]; Dose 14.7167 µM,0.0182 and 0.01915 and 0.02408
same,Cyp40 prolyl-isomerase assay raw dose-response value,[4]; Dose 44.15 µM,0.01601 and 0.01375 and 0.01814
same,IC50,"[4]; Wild-Type Cyclophilin Prolyl Isomerase Inhibition IC50 Values, Cyp40, wild-type Cyp40",1700 nM

# Reference: PMC9596378, “Discovery and molecular basis of subtype-selective cyclophilin inhibitors” (Nature Chemical Biology, 2022)
